This note sets out measurements from patent US12691084B2, “Pharmaceutical composition for preventing or treating bone diseases” (INDUSTRY FOUNDATION OF CHONNAM NATIONAL UNIVERSITY, priority 2019, dated 2026).

The target of series [1] is CYP2C19 (Homo sapiens, UniProt P33261). Briefly: CYP450 drug metabolism inhibition, 2C19. The class given is in vitro ADME. To be noted: criterion remaining activity >50%. Here is the method: (§1) In order to analyze the drug metabolism of PMSA compound, ADME evaluation was requested to the Daegu-Gyeongbuk Advanced Medical industry Promotion Foundation (DGMIF). Metabolic stability of drugs using liver microsomes (microsomal stability), drug metabolism inhibitory ability by five CYP450 enzymes, plasma metabolism (plasma stability), plasma protein binding, and intestinal permeability of drugs (PAMPA, parallel artificial membrane permeability assay) were analyzed. […] Further, it was confirmed that the permeability resistance was excellent (see Table 3 below). On the other hand, for one of PMSA derivatives, that is, 2-(N-(3,5-dimethylphenyl)methylsulfinamido)-N-(2 (phenylthio)phenyl)propanamide (#25-D5), intestinal permeability of the drug (PAMPA) was not measured.

Series [2] is described as follows: Microsomal stability (H). The class given is in vitro ADME, human. To be noted: H of H/M; criterion >60%. Here is the method: as §1
Series [3] addresses CYP2C9 (Homo sapiens, UniProt P11712). Kind of series: CYP450 drug metabolism inhibition, 2C9. It is filed as in vitro ADME. Conditions: criterion remaining activity >50%. The procedure: as §1
Series [4] is described as follows: Plasma stability. The class given is in vitro ADME. Here is the method:
as §1

The target of series [5] is CYP2D6 (Homo sapiens, UniProt P10635). Kind of series: CYP450 drug metabolism inhibition, 2D6. It is filed as in vitro ADME. To be noted: criterion remaining activity >50%. Here is the method:
as §1

The subject of series [6] is osteoblast progenitor cells treated with hBMP2. Kind of series: Osteoblast differentiation, ALP staining. The class given is cell-based, mouse. To be noted: 7 days. Here is the method:
After collecting cells from C57BL/6J mouse calvaria at the age of 3 days, the cells were seeded on a 96-well plate in an amount of 4×10^3 cells per well, and then treated with 100 ng/ml of hBMP2 as a differentiation inducer. Simultaneously, the cells were treated with the compound of the present invention and cultured for 7 days, followed by ALP staining to assess differentiation influence. Specific experimental methods and results are as follows.
Precursor cells isolated from the mouse skull were treated with hBMP2 (Bone morphogenic protein 2, Sino biological, 10426-HNAE, 100 ng/ml) to induce differentiation into osteoblasts. Differentiated osteoblasts could be discriminated through alkaline phosphatase (ALP) staining as an osteoblast-specific protein. When the progenitor cells were treated with hBMP2, each of the 35D35 compounds was also used for treatment, followed by culturing the cells for 7 days while changing the medium every 2 to 3 days.
4×10^3 osteoblast progenitor cells were put into a 96-well plate and treated with hBMP2 to induce differentiation of osteoblasts. At this time, the cells were treated with #25 (PMSA-3-Ac) and #25-D12 (PMSA-2-OMe-5-Cl), respectively, and then cultured for 7 days.
After discarding the ethanol, the remaining product was washed with HBSS, followed by adding a NBT solution (Sigma, B1911) in an amount of 100 μl per well and staining for 15 minutes. By washing twice with water, the remaining dye was eliminated. After ALP staining, a degree of color development was measured using Image J software, and then graphed for comparison. […] In other words, it can be seen that the differentiation of osteoblasts is not affected by treatment with the PMSA compound.
Precursor cells isolated from the mouse skull were treated with hBMP2 (Bone morphogenic protein 2, Sino biological, 10426-HNAE) to induce differentiation into osteoblasts. […]
After ALP staining, the degree of color development was measured using Image J software, and then graphed for comparison. […]

For series [7], the system named is monocytes isolated from mouse bone marrow treated with RANKL. Briefly: Osteoclast differentiation inhibition, TRAP staining and assay. It is filed as cell-based. Conditions: for cells differentiated into osteoclasts (differentiation area ratio per total area): 10 μM, RANKL, Image J; for cells differentiated into osteoclasts (differentiation area ratio per total area) / osteoclast differentiation inhibitory ability: TRAP staining; for osteoclast differentiation inhibitory ability: area of differentiated osteoclasts. The procedure: Macrophages were isolated from bone marrow of 8-week old C57BL/6J mice, and seeded on a 96-well plate in an amount of 1×10^4 cells per well, followed by treating the cells with osteoclast differentiation factors M-CSF and RANKL at 30 ng/ml and 50 ng/ml, respectively. At the same time, the compounds were used for treatment, followed by culturing the cells for 3 to 4 days. Thereafter, differentiation influence was evaluated through TRAP staining and cell counting. Specific experimental procedures and results are as follows.
The bone marrow of a 10-week-old female mouse was isolated from the hip bone, femur and tibia, and incubated in α-MEM medium (Gibco, 12561-056, 10% fetal bovine serum, 1% penicillin/streptomycin) containing macrophage colony stimulating factor (M-CSF, PeproTech, 315-02, 30 ng/ml) for […] so as to isolate only monocytes. The isolated monocytes were treated with receptor activator of nuclear factor kappa B ligand (RANKL, PeproTech, 315-11, 50 ng/ml) to induce osteoclast differentiation. When a morphology of fused multinuclear cells began to appear from day 3 after treatment with RANKL, the cells were differentiated into giant multinuclear cells for 4 to 6 days (see FIG. 1), and dead by cell apoptosis after 6 days.
During RANKL treatment, each PMSA compound was also used for treatment, followed by culturing the cells for 3 or 5 days to confirm the effects of inhibiting osteoclast differentiation.
1×10^4 monocytes isolated from mouse bone marrow were put into a 96-well plate and treated with RANKL and PMSA together to confirm the effect of each PMSA on osteoclast differentiation ability. Each PMSA was used for treatment by concentration. The activity of tartrate-resistant acid phosphatase (TRAP), which has increased expression during osteoclast differentiation, was confirmed using a TRAP activity assay kit (Cosmo Bio, PMC-AK04F-COS) (see FIG. 2).
Further, after staining, the multinuclear cells formed during osteoclast differentiation were observed under a microscope, and each well was photographed and a differentiation area ratio per total area was determined using Image J software. […] Specifically, at 10 μM concentration, cells were differentiated into osteoclasts by 30% when using #25 (PMSA-3-Ac), similarly, 74% using #25-C (PMSA-Ph), 63% using #25-N (PMSA-PhN), 41% using #25-PhO (PMSA-O), and only 1% using #25-D12 (PMSA-2-OMe-5-Cl), respectively. […]

The mark [8] stands for this setting: compared to group in which osteoclasts are normally differentiated.

Chain of CYP2D6 (P10635 whole entry): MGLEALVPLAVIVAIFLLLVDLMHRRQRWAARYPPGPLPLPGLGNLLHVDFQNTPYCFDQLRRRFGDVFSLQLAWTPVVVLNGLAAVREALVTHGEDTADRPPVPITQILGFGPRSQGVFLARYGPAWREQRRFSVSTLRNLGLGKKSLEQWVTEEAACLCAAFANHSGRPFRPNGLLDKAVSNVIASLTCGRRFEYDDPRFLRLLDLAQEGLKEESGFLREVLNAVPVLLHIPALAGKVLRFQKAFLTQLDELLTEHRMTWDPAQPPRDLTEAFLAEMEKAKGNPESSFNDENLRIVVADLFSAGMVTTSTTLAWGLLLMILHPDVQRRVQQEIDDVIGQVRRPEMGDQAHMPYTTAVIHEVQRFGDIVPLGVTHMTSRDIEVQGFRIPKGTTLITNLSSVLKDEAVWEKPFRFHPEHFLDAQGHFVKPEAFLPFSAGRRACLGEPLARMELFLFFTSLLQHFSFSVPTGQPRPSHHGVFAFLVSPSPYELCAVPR
Chain of CYP2C9 (P11712 whole entry): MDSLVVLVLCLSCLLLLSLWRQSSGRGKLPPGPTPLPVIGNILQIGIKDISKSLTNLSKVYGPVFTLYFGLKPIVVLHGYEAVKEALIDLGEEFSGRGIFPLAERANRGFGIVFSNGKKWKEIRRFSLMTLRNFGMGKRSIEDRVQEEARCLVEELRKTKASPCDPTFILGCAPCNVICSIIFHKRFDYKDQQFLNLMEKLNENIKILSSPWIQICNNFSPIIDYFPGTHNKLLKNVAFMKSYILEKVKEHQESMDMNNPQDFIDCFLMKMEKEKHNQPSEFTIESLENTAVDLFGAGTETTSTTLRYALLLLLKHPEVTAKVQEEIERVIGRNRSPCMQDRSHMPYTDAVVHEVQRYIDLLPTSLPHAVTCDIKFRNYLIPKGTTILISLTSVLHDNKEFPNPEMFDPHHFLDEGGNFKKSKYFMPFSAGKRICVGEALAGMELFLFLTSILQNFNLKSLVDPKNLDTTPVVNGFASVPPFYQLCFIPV
Chain of CYP2C19 (P33261 whole entry): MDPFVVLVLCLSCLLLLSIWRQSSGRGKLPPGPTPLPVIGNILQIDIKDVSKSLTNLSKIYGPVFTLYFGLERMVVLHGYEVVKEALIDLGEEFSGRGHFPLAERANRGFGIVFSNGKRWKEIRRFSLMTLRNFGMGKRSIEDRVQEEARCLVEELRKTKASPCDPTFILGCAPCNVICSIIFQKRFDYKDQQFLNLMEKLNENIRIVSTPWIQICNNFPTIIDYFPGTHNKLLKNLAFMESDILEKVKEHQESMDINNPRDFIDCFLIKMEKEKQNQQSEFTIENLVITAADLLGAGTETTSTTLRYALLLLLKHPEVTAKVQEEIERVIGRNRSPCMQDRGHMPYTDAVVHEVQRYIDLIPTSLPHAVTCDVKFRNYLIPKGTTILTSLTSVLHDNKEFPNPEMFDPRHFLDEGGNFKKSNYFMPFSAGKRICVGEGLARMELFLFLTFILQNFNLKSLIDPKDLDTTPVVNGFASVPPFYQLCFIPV

As to `COc1ccc(Cl)cc1N(CC(=O)Nc1ccccc1Sc1ccccc1)S(C)(=O)=O` [#25-D12, 2-(N-(5-chloro-2-methoxyphenyl)methylsulfonamido)-N-(2-(phenylthio)phenyl)acetamide], the “CYP 2C19 remaining activity” value in series [1] was found to be 6.3%. In series [2], the “Microsomal stability (>60%) H” value is given as 13.9%. Moreover, the “CYP 2C9 remaining activity” value in series [3] worked out at 59.8%. Besides, in series [4], the “Plasma S Human 30 min (% Remaining)” value turned out to be 98.3 % Remaining and the “Plasma S Human 120 min (% Remaining)” value stood at 97.8 % Remaining. Further, the “CYP 2D6 remaining activity” value in series [5] is recorded as 85.5%. Also, the “osteoblast differentiation (ALP staining)” value (shortened to “osteoblast differentiation”) in series [6] is reported as “did not inhibit or activate”. Moreover, in series [7], the “cells differentiated into osteoclasts (differentiation area ratio per total area)” value came to 1% and the “osteoclast differentiation inhibitory ability” value was “excellent”.

In the case of `CC(=O)c1cccc(N(CC(=O)Nc2ccccc2Sc2ccccc2)S(C)(=O)=O)c1` [#25, 2-(N-(3-acetylphenyl)methylsulfonamido)-N-(2-(phenylthio)phenyl)acetamide], the “CYP 2C19 remaining activity” value in series [1] was determined as 6.2%. Further, in series [2], the “Microsomal stability (>60%) H” value is reported as 8.7%. In addition, the “CYP 2C9 remaining activity” value in series [3] was 63.7%. Besides, in series [4], the “Plasma S Human 30 min (% Remaining)” value was 87.1 % Remaining and the “Plasma S Human 120 min (% Remaining)” value is listed as 97.3 % Remaining. In addition, the “CYP 2D6 remaining activity” value in series [5] is given as 80.4%. Also, the “osteoblast differentiation” value in series [6] is on record as “did not inhibit or activate”. Besides, in series [7], the “cells differentiated into osteoclasts (differentiation area ratio per total area)” value amounted to 30% and the “osteoclast differentiation inhibitory ability” value is reported as “excellent”.

Consider `Cc1cc(C)cc(N([C@@H](C)C(=O)Nc2ccccc2Sc2ccccc2)S(C)(=O)=O)c1` [#25-D5, N^2-(3,5-dimethylphenyl)-N^2-(methylsulfonyl)-N-[2-(phenylthio)phenyl]alanineamide], for which the “CYP 2C19 remaining activity” value in series [1] was found to be 21.7%. The “Microsomal stability (>60%) H” value in series [2] is reported as 10.9%. In addition, the “CYP 2C9 remaining activity” value in series [3] was 52.4%. Also, in series [4], the “Plasma S Human 30 min (% Remaining)” value is 100/100 % Remaining and the “Plasma S Human 120 min (% Remaining)” value was 100/100 % Remaining. For the same compound, in series [5], the “CYP 2D6 remaining activity” value worked out at 87.3%. Also, the “osteoblast differentiation” value in series [6] is “not affected”. For the same compound, in series [7] (setting [8]), the differentiation area result is reported as “significant reduction”, the giant multinuclear cells entry was “significant reduction” and the number of osteoclasts result is “significant reduction”.
